# Patent publication US11931376B1, “Methods for the treatment of chronic kidney disease” (RENATUS INC., priority 2022, dated 2024)
# What was measured:
# [1] = system: red blood cells (whole blood); assay: Hemolysis assay; assay type: cell-based, C57/BL6 mice; conditions: cyclodextrin 50 mg/ml, 1 hour, 37° C., absorbance at 540 nm
# Experimental: Whole blood from wilt-type C57/BL6 mice was used for assessment of hemolytic activity of cyclodextrins. The whole blood samples (300 μl) were mixed with each cyclodextrin at a concentration of 50 mg/ml and incubated for 1 hour at 37° C. After centrifugation at 3,000 g for 5 minutes, the absorbance at 540 nm of the supernatant was measured.
# [2] = system: macrophage cell line (Raw264.7); assay: Cell viability assay (CCK-8); assay type: cell-based; conditions: cyclodextrin 20 mg/ml, 24 hours, 37° C.
# Experimental: The cells were seeded in a 96-well plate at a density of 5×10^4 cells and 24 hours later cyclodextrin were treated at a concentration of 20 mg/ml for 24 hours at 37° C. CCK-8 agent was added, 10 μl per well. After 3 hours, absorbance at 450 nm was measured to assess cellular viability.
# [3] = system: Murine mesangial cells; assay: Cholesterol efflux in kidney mesangial cells (flow cytometry); assay type: cell-based, C57BL/6 mice; conditions: mesangial cells loaded with NBD-CC for 3 hours, cyclodextrin 5 mg/ml
# Experimental: Murine mesangial cells derived from the kidney of wild-type C57BL/6 mice were maintained in DMEM, 10% fetal bovine serum (FBS), 100 U/ml penicillin G, 100 μg/ml streptomycin, and 2 mM L-glutamine. The cells were seeded at a density of 10^6 cells/well one day before treatment with NBD-CC. The cells were treated with 100 μg of NBD-CC per 10^6 cells for 3 hours and then washed thoroughly twice. Then, cyclodextrins were treated at a concentration of 5 mg/ml. For the assessment of cholesterol efflux and efflux-mediating proteins ABCA1 and ABCG1, flow cytometry was performed.
# [4] = system: albuminuria; assay: Albuminuria in diabetic kidney disease mouse model; assay type: in vivo, db/db mice; conditions: subcutaneous 2 g/kg twice a week for 4 weeks
# Experimental: To investigate the effects of cyclodextrins on albuminuria, 8-week-old male db/db mice were used to model diabetes type II, which is susceptible to albuminuria. In the experimental setup, Oligo-GCD (4103 Da), Oligo-HPGCD (3825 Da) and HPBCD-B were subcutaneously injected at a dose of 2 g/kg twice a week for 4 weeks. Control mice were given PBS only. After the treatment is completed, 24-hour urine samples were collected and the concentration of albumin in the urine was measured (FIG. 8A).
Compound,hemolytic activity [1],cell viability [2],cellular cholesterol content [3],ACR reduction compared to control [4],albumin/creatinine ratio (ACR) ([4]; urine at end of week 4)
"CC(O)COC[C@H]1O[C@@H]2O[C@H]3[C@H](O)[C@@H](O)[C@@H](O[C@H]4[C@H](O)[C@@H](O)[C@@H](O[C@H]5[C@H](O)[C@@H](O)[C@@H](O[C@H]6[C@H](O)[C@@H](O)[C@@H](O[C@H]7[C@H](O)[C@@H](O)[C@@H](O[C@H]8[C@H](O)[C@@H](O)[C@@H](O[C@H]1[C@H](O)[C@H]2O)O[C@@H]8COCC(C)O)O[C@@H]7COCC(C)O)O[C@@H]6COCC(C)O)O[C@@H]5COCC(C)O)O[C@@H]4COCC(C)O)O[C@@H]3COCC(C)O (single isomer, unassigned) [HPBCD-A, hydroxypropyl-beta-cyclodextrin]",disrupt the plasma membrane and induce hemolysis,induce cell viability loss,54.1%,–,–
"CC(O)COC[C@H]1O[C@@H]2O[C@H]3[C@H](O)[C@@H](O)[C@@H](O[C@H]4[C@H](O)[C@@H](O)[C@@H](O[C@H]5[C@H](O)[C@@H](O)[C@@H](O[C@H]6[C@H](O)[C@@H](O)[C@@H](O[C@H]7[C@H](O)[C@@H](O)[C@@H](O[C@H]8[C@H](O)[C@@H](O)[C@@H](O[C@H]1[C@H](O)[C@H]2O)O[C@@H]8COCC(C)O)O[C@@H]7COCC(C)O)O[C@@H]6COCC(C)O)O[C@@H]5COCC(C)O)O[C@@H]4COCC(C)O)O[C@@H]3COCC(C)O (single isomer, unassigned) [HPBCD-B, hydroxypropyl-beta-cyclodextrin]",disrupt the plasma membrane and induce hemolysis,induce cell viability loss,48.2%,22.6%,190.9 µg/mg
"CC(O)COC[C@H]1O[C@@H]2O[C@H]3[C@H](O)[C@@H](O)[C@@H](O[C@H]4[C@H](O)[C@@H](O)[C@@H](O[C@H]5[C@H](O)[C@@H](O)[C@@H](O[C@H]6[C@H](O)[C@@H](O)[C@@H](O[C@H]7[C@H](O)[C@@H](O)[C@@H](O[C@H]8[C@H](O)[C@@H](O)[C@@H](O[C@H]1[C@H](O)[C@H]2O)O[C@@H]8COCC(C)O)O[C@@H]7COCC(C)O)O[C@@H]6COCC(C)O)O[C@@H]5COCC(C)O)O[C@@H]4COCC(C)O)O[C@@H]3COCC(C)O (single isomer, unassigned) [HPBCD-C, hydroxypropyl-beta-cyclodextrin]",disrupt the plasma membrane and induce hemolysis,induce cell viability loss,50.5%,–,–
